Earlier results in publication PMC5346970 (Journal of Medicinal Chemistry, 2017).
Several values for one entry are separate records, joined by “and”; a condition that tells them apart may be missing. Equal entries are not always repeated. Where two headings read alike, the source gives them in different places.

Tests used:
[1] = for conjugate level in blood: 3.6 g daily dose, all six subjects
Alzheimer’s disease = conditions: for mean plasma level three hours post-treatment / mean baseline plasma level at 24 weeks: LC/MS/MS; for mean plasma level three hours post-treatment: 24 weeks
[2] = synthetic 1, rats
[3] = depending on solvent and method
[4] = room temperature, neutral pH
[5] = system: murine macrophage cells, J774.1; conditions: read-out: cytotoxicity IC50; murine macrophage cell line
[6] = system: histone methyltransferase G9a; conditions: counterscreen
HAT Gcn5 = conditions: in vitro
GSK-3β = conditions: no DTT, 30–90 min incubation
[7] = system: amyloid-β (Aβ) fibril formation; conditions: ThT assay
Aβ = conditions: transmission electron microscopy, in vitro
[8] = system: SERCA (sarcoplasmic/endoplasmic reticulum calcium) pump; conditions: previously reported
mutant CFTR (ΔF508 mice) = conditions: 45 mg kg^–1 day^–1 oral; not reproduced by independent lab (ref 139)
[9] = system: cannabinoid receptor 1 (CB1); conditions: repeated experiments after retraction
CB2 = conditions: repeated experiments after retraction
[10] = at 2 h, one individual, single 12 g oral dose
[11] = system: advanced pancreatic cancer; conditions: 8 g/day oral, steady state on day 3
[12] = mice fed diets poor in iron

O=S(=O)(O)O [Sulfate]
conjugate level in blood [1]: 8.9 ± 0.7 nmol/L

COc1cc(/C=C/C(=O)CC(=O)/C=C/c2ccc(O[C@@H]3O[C@H](C(=O)O)[C@@H](O)[C@H](O)[C@H]3O)c(OC)c2)ccc1O [glucuronidated 1]
conjugate level in blood [1]: 15.8 ± 0.9 nmol/L
mean plasma level three hours post-treatment (Alzheimer’s disease): 96.05 ± 26 ng/mL

COc1cc(CCC(=O)CC(=O)CCc2ccc(OC3OC(C(=O)O)C(O)C(O)C3O)c(OC)c2)ccc1O (centres unmarked) [glucuronidated tetrahydrocurcumin]
mean plasma level three hours post-treatment (Alzheimer’s disease): 298.2 ± 140.0 ng/mL

COc1cc(CCC(=O)CC(=O)CCc2ccc(O)c(OC)c2)ccc1O [tetrahydrocurcumin]
mean baseline plasma level at 24 weeks (Alzheimer’s disease): 6.86 ± 1.69 ng/mL
mean plasma level three hours post-treatment (Alzheimer’s disease): 3.73 ± 2.0 ng/mL

(1E,6E)-1,7-bis(4-hydroxy-3-methoxyphenyl)-1,6-heptadiene-3,5-dione [Compound 1]
t1/2 for loss of parent compound (pH 7.5, rt, aqueous buffer): approximately 20 min
reduction in parent material (samples prepared in clear versus amber glass): 5%
compound degradation (solvolysis in aqueous alkaline buffer, within 30 min): 90%
oral bioavailability [2]: less than 1%
pKa, first phenolic proton [3]: 8.5–10.4
pKa, second phenolic proton [3]: 9.5–10.7
solubility in water [4]: practically insoluble
solubility in water (estimate) ([4]; confounded by aggregation): 1 to 10 µg/mL
IC50 (AmpC β-lactamase; with Triton X-100): > 30 µM
IC50 (AmpC β-lactamase; without Triton X-100): 12 µM
IC50 (malate dehydrogenase; with Triton X-100): > 30 µM
IC50 (malate dehydrogenase; without Triton X-100): 9 µM
IC50 (HIV-2 protease; with Triton X-100): > 100 µM
IC50 (HIV-2 protease; without Triton X-100): 9 µM
Papp (Caco-2 model system): 3.18 × 10^–6 ± 1.08 × 10^–6 cm/s
IC50 [5]: 31 µM
activity versus PCAF (HAT PCAF; counterscreen): failed to show any activity
inhibition of PCAF (HAT PCAF; in vitro): failed to inhibit
activity versus G9a [6]: failed to show any activity
inhibition of Gcn5 (HAT Gcn5): failed to inhibit
IC50 (GSK-3β): 0.066 µM
activity in FP secondary screen (tau fibril formation): inactive
IC50 [7]: 1 to 64 µM
effect on aggregation of Aβ (Aβ): does not affect the aggregation
in vitro activity [8]: 5 to 15 µM
effect on phenotypic deficits (mutant CFTR (ΔF508 mice)): ameliorated phenotypic deficits
inhibition of CB1 [9]: low micromolar inhibitor
inhibition of CB2 (CB2): low micromolar inhibitor
peak serum level [10]: 57.6 ng/mL and 156 nmol/L
level in blood as reported ([1]; 3.6 g daily, 1 h time point): 0.6 nM
mean baseline plasma level at 24 weeks (Alzheimer’s disease): 2.67 ± 1.69 ng/mL
mean plasma level three hours post-treatment (Alzheimer’s disease): 7.76 ± 3.23 ng/mL
plasma level by HPLC (Alzheimer’s disease; one sample, 4 h after a 4 g dose, below assay LLOD): 6 ng/mL
plasma level [11]: 22 to 41 ng/mL
iron status [12]: inducing a state of overt iron deficiency
